Assay results: patent US10604487B2, “Pyridinol derivative or pharmaceutically acceptable salt thereof, and pharmaceutical composition containing same as active ingredient” (Research Cooperation Foundation of Yeungnam University, priority 2016, dated 2020)

How the values were obtained:
[1] = system: TNBS-induced colitis; test: In vivo efficacy of oral administration in TNBS-induced inflammatory bowel disease model; set-up: species or system Sprague Dawley rats; conditions: rat, oral, 1 mg/kg, 5 days
Experimental: 7 to 8-week-old Sprague Dawley rats were purchased from Orient Bio Korea, and after stabilization with typical solid feed for 3 days, were used as animals for the experiment. The animals were freely supplied with feed and water during the experiment, and a cage was maintained at a temperature of 25±1° C. and a relative humidity of 50±10%. Lighting was adjusted to a 12-hour light-dark cycle using an automatic lightening system. In regard to experimental groups, there were 5 groups each consisting of 6 rats having an average weight of 180±10 g (a control group, a group administered TNBS only, a group administered TNBS+300 mg/kg of sulfasalazine, a group administered TNBS+10 mg/kg of GLPG, and a group administered TNBS+1 mg/kg of test drug), which were divided according to a randomized block design.
After rats that had been fasting for 24 hours were anesthetized with diethyl ether, a 1 mL syringe connected with a polyethylene catheter was used to slowly inject 0.8 mL of 5% TNBS diluted with 50v/v % ethanol into the lumen of a colon, and then the rats turned upside down and kept upright for 60 seconds to prevent the leakage of 5% TNBS from the anus. In the control group, only a vehicle [50 v/v % ethanol] was injected in the same manner as in the other groups (Thapa et al., 2008).
To examine a drug effect, for 5 days from the day following the TNBS treatment, a drug was administered at a predetermined time every day.
A change in the body weights of the rats was observed using a digital mass meter from the fasting stage to the end of the TNBS administration and drug administration processes.
The colon of each rat was extracted and tissue 5 to 6 cm from the anus was cut into 1-cm pieces, and then the weight of the tissue was measured.

[2] = Cytotoxicity test (MTT), HT-29; type: cell-based; conditions: human, HT-29, 48 h
Procedure, shortened: (§1)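 Cells seeded at 1×10⁵ cells/cm² and exposed to graded compound concentrations for 48 h at 37 °C in RPMI 1640 with 1% FBS. MTT (5 mg/mL) added for 4 h; formazan dissolved in DMSO and absorbance read at 540 nm.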

[3] = system: TNF-α-induced adhesion of monocytes to intestinal epithelial cells; test: Inhibitory activity against TNF-α-induced adhesion of monocytes (U937) to intestinal epithelial cells (HT-29); type: cell-based, human; conditions: Homo sapiens
Procedure, shortened: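 HT-29 monolayers pretreated 1 h with compound in 1% FBS medium, then exposed 3 h at 37 °C to BCECF-loaded U937 cells plus 10 ng/mL TNF-α. Non-adherent cells washed off; bound cells quantified by fluorescence after Triton X-100 lysis.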

[4] = Cytotoxicity test (MTT), U937; type: cell-based; conditions: human, U937, 48 h
Procedure, shortened: as §1

IC50 ([3]; HT-29/U937 adhesion, TNF-α-induced, read-out: IC50 (adhesion inhibition)): 320 nM
SMILES: Cc1nc(NS(=O)(=O)c2ccc(C(F)(F)F)cc2)c(C)c(C)c1O [Compound 22-3, N-(5-hydroxy-3,4,6-trimethylpyridin-2-yl)-4-(trifluoromethyl)benzenesulfonamide]
Body weight recovery rate (%) [1]: 25.0%
Bowel weight recovery rate (%) [1]: 50.3%
viability at 48 h, 0.01 µM ([2]; HT-29 cells (colorectal cancer cell line), 0.01 μM, read-out: Cell viability (% of control)): 92.5 ± 1.5%
viability at 48 h, 0.1 µM ([2]; HT-29 cells (colorectal cancer cell line), 0.1 μM, read-out: Cell viability (% of control)): 95 ± 0.9%
viability at 48 h, 1 µM ([2]; HT-29 cells (colorectal cancer cell line), 1 μM, read-out: Cell viability (% of control)): 89.3 ± 4.7%
viability at 48 h, 10 µM ([2]; HT-29 cells (colorectal cancer cell line), 10 μM, read-out: Cell viability (% of control)): 91.8 ± 1.8%
viability at 48 h, 100 µM ([2]; HT-29 cells (colorectal cancer cell line), 100 μM, read-out: Cell viability (% of control)): 72.6 ± 3.2%
IC50 at 48 h ([2]; HT-29 cells, read-out: IC50 (μM), cytotoxicity): > 100 µM
inhibition at 1 µM ([3]; 1 μM, Table 8, read-out: 1 μM concentration inhibitory activity): 87.3%
viability at 48 h, 0.01 µM ([4]; U937 cells (monocytic blood cancer-derived cell line), 0.01 μM, read-out: Cell viability (% of control)): 96.9 ± 1.5%
viability at 48 h, 0.1 µM ([4]; U937 cells (monocytic blood cancer-derived cell line), 0.1 μM, read-out: Cell viability (% of control)): 93 ± 1.5%
viability at 48 h, 1 µM ([4]; U937 cells (monocytic blood cancer-derived cell line), 1 μM, read-out: Cell viability (% of control)): 87.5 ± 2.2%
viability at 48 h, 10 µM ([4]; U937 cells (monocytic blood cancer-derived cell line), 10 μM, read-out: Cell viability (% of control)): 75.5 ± 1.9%
viability at 48 h, 100 µM ([4]; U937 cells (monocytic blood cancer-derived cell line), 100 μM, read-out: Cell viability (% of control)): 53.3 ± 1.5%
IC50 at 48 h ([4]; U937 cells): > 100 µM
